We go through one sequence from publication PMC4206519, “Lack of Renoprotective Effect of Chronic Intravenous Angiotensin-(1-7) or Angiotensin-(2-10) in a Rat Model of Focal Segmental Glomerulosclerosis” (PLoS ONE, 2014).

Where no end group is shown, it is not given here.

One data set addresses T1, human AT2 receptor (Homo sapiens, UniProt P50052).
T1 construct: expressed in transfected cells
T1 sequence (P50052 1-363): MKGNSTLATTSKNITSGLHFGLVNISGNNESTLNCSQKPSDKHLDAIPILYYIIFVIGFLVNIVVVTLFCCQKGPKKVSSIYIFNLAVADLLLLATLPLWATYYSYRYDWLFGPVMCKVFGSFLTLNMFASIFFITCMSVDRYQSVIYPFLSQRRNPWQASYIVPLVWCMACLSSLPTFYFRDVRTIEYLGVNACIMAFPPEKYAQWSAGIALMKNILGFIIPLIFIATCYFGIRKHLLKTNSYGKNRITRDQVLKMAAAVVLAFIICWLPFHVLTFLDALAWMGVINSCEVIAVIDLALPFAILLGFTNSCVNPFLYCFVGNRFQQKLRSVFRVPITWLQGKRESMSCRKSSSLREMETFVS
Put plainly: Ang peptide radioligand binding assay, displacement of [125I]-Ang-II (AT2R/HEK). Conditions: competition with [125I]-Ang-II, HEK-293 cells stably transfected with human AT2 receptor, 90 min on ice, log-logit analysis; average of n studies. On the procedure:
HEK-293 cells stably expressing AT1a receptor were maintained and characterized as previously described. HEK-293 cells expressing AT2 receptors were transfected with pcDNA3.1 plasmid containing human AT2 receptor DNA using Lipofectamine 2000 at 1 µg DNA/well of a six-well plate according to manufacturer's protocol (Invitrogen, Carlsbad, CA). Transfected cells were maintained in Minimal Essential Medium (MEM) containing 10% fetal bovine serum and 1% antibiotic/fungizone/antimycotic with addition of geneticin (400 µg/ml) for stable transfectants. Confluent monolayers cells were deprived of serum (0.1% bovine serum albumin) for 2–24 hours before assay. […] After 90 min of incubation on ice, cells were gently washed 3 times with ice cold 0.9% sodium chloride followed by solubilization of the cell monolayer with 0.1 N NaOH/0.1% SDS. The solubilized sample was placed into a gamma counter for determination of cell-associated radioactivity. Log-logit analysis of the obtained competition curves was performed for determination of IC50 values.
On the technique in general: In a radioligand displacement assay an active substance lowers the binding of a labelled ligand.

The subject of data set [1] is uni-nephrectomized fawn-hooded hypertensive (FHH) rats. Conditions: late disease model. On the procedure:
Male FHH rats (In-house colony established from animals obtained from Charles River Laboratories, Wilmington, MA) were housed at a certified animal facility at 22°C and a 12∶12 h light/dark cycle. […] All surgeries were performed under isoflurane anesthesia (5% induction, 2% maintenance), at 37°C, and perioperative buprenorphine.
Following anesthesia, an incision was made in the left flank; the kidney was exposed and excised after ligation of the pedicle. […] Under anesthesia, a mini-pump was placed in a subcutaneous pocket. […] Pumps were replaced once during the treatment period. For the early disease model, five groups of rats were examined. […] For the late disease model, eight groups of rats were examined. […] The dosages of the Ang peptides were selected based on previous studies where Ang-(1-7) was similarly administered using implanted osmotic mini-pumps, [16], [17], [26]. […] Systemic blood pressure was measured by tail-cuff sphygmomanometer (Natume, Japan). Animals were placed on metabolic cages for urine collection at pre-specified time points. Urinary protein excretion was measured by the method of Lowry. Urinary sodium concentration was measured by ion-selective electrodes. At sacrifice, kidneys were harvested for histological analysis and measurement of Ang peptide concentration.
Upon harvesting, kidneys were cleared of blood by transcardiac perfusion of iced-cold phosphate buffered saline, excised and fixed in 4% paraformaldehyde, embedded in paraffin and processed for microscopic examination. Kidney sections (2-µm) were stained with hematoxylin-eosin (H&E), Jones silver and Periodic Acid Schiff (PAS). Slides were reviewed by an experienced renal pathologist (S.S) in a blinded fashion. Index of glomerulosclerosis was evaluated by a semiquantitative score based on the percentage of the glomerular tuft occupied by sclerotic lesions (0: no lesions, 1: lesions affecting less than 25% of the glomerulus, 2-3-4: lesions affecting 25–50%, 50–75% and 75–100% of the glomerulus, respectively). Tubular injury was rated based on presence of tubular atrophy, microcystic tubular dilation and interstitial fibrosis, from 0 to 3 (0: none; 1: mild; 2: moderate; 3: severe).
Blood pressure data were analyzed by repeated measures ANOVA. Differences within groups were analyzed using paired t-tests adjusted with Bonferroni modification. Differences between group means at each time point were tested using one-way ANOVA followed by Tukey-Kramer post-hoc test. Urinary protein excretions were log10 transformed and tested using a two-way ANOVA for repeated measures followed by Scheffe post hoc test for differences between the groups. Untransformed 24-hour urinary protein excretions at each time point were then tested using Kruskal-Wallis test. If a significant main effect was detected then differences between groups were tested using the Mann-Whitney U test with the probability adjusted using the Bonferroni modification. Urine sodium was also assessed by two-way ANOVA for repeated measures and pairwise multiple comparisons were made using the Holm-Sidak method. Multiple comparisons of Ang peptide levels were made using ANOVA when data were normally distributed and with log10 transformation when non-normally distributed. Post-hoc pairwise comparisons were made using the Holm-Sidak method. […] For Ang peptide measurements by LC/MS/MS, only values above the LLOQ were utilized for statistical comparisons.

Broadly, the IC50 is the midpoint of a concentration-inhibition curve. A lower IC50 goes with higher potency.

Sequence RVYIHPFHL [Ang-(2-10)] came in with an IC50 at human AT2 receptor of 6.6 nM. In addition, in data set [1] (400 ng/kg/min iv), the “demise of treated animals” value was 7 out of the 9. In data set [1] (high-dose 400 ng/kg/min iv, 12 weeks, n=9 treated), the “number of rats that survived until the end of the study” value stood at 2.
